Source: PubChem BioAssay AID256 (DTP/NCI, 2004)
“And” between values parts separate entries of the source, which are not always exact repeats. Equal values may be shown once. Inconclusive results and toxic doses are left out. The calls were made as follows: active = survival T/C of 150% or more; inactive = T/C below 125% in these data.

System: CD2F1 mice, L1210 leukemia ip, survival T/C
Assay: NCI In Vivo Anticancer Drug Screen. Data for tumor model L1210 Leukemia (intraperitoneal) in CD2F1 (CDF1) mice
Conditions: higher = longer survival
Procedure, shortened: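 Mice carrying a transplanted tumor received test compound or vehicle alone. The value is the measurement in the treated group divided by that in the vehicle-treated control group.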

[1] = endpoint: mean survival time, dose: 100.0 mg/kg/injection, schedule: Q04DX003 (ip), vehicle: saline with Tween-80
[2] = endpoint: mean survival time, dose: 200.0 mg/kg/injection, schedule: Q04DX003 (ip), vehicle: saline with Tween-80
[3] = endpoint: mean survival time, dose: 400.0 mg/kg/injection, schedule: Q04DX003 (ip), vehicle: saline with Tween-80
[4] = endpoint: mean survival time, dose: 100.0 mg/kg/injection, schedule: Q01DX001 (ip), vehicle: saline
[5] = endpoint: mean survival time, dose: 200.0 mg/kg/injection, schedule: Q01DX001 (ip), vehicle: saline
[6] = endpoint: mean survival time, dose: 400.0 mg/kg/injection, schedule: Q01DX001 (ip), vehicle: saline
[7] = endpoint: mean survival time, dose: 25.0 mg/kg/injection, schedule: Q01DX009 (ip), vehicle: saline with Tween-80
[8] = endpoint: mean survival time, dose: 50.0 mg/kg/injection, schedule: Q01DX009 (ip), vehicle: saline with Tween-80
[9] = endpoint: mean survival time, dose: 200.0 mg/kg/injection, schedule: Q01DX009 (ip), vehicle: saline with Tween-80
[10] = endpoint: mean survival time, dose: 400.0 mg/kg/injection, schedule: Q01DX009 (ip), vehicle: saline with Tween-80
[11] = endpoint: mean survival time, dose: 100.0 mg/kg/injection, schedule: Q01DX009 (ip), vehicle: saline with Tween-80
[12] = endpoint: mean survival time, dose: 100.0 mg/kg/injection, schedule: Q01DX009 (ip), vehicle: saline
[13] = endpoint: mean survival time, dose: 200.0 mg/kg/injection, schedule: Q01DX009 (ip), vehicle: saline
[14] = endpoint: mean survival time, dose: 400.0 mg/kg/injection, schedule: Q01DX009 (ip), vehicle: saline

Measured: T/C

CCOC(=O)c1cc2ccccc2n1-c1ccccc1
inactive: [1] 95 % of control | [2] 97 % of control | [3] 95 % of control

N#CN1CCC2CC3(CCC2C1)OCCO3 (stereo not given)
inactive: [4] 96 % of control | [5] 91 % of control | [6] 96 % of control

O=[N+]([O-])c1cc(S(=O)(=O)F)ccc1Cl
inactive: endpoint: mean survival time, dose: 12.5 mg/kg/injection, schedule: Q01DX009 (ip), vehicle: saline with Tween-80 100 % of control | [7] 94 % of control | [8] 97 % of control and 103 % of control

Cc1cc(Cc2ccc(N=C=O)c(C)c2)ccc1N=C=O
inactive: [1] 103 % of control | [9] 89 % of control | [2] 111 % of control | [10] 89 % of control | [3] 106 % of control

Sc1c(Cl)c(Cl)c(Cl)c(Cl)c1Cl
inactive: endpoint: mean survival time, dose: 100.0 mg/kg/injection, schedule: Q04DX002 (ip), vehicle: Klucel (hydroxypropylcellulose) (HPC) 96 % of control | endpoint: mean survival time, dose: 200.0 mg/kg/injection, schedule: Q04DX002 (ip), vehicle: Klucel (hydroxypropylcellulose) (HPC) 90 % of control | endpoint: mean survival time, dose: 400.0 mg/kg/injection, schedule: Q04DX002 (ip), vehicle: Klucel (hydroxypropylcellulose) (HPC) 90 % of control

CC1=C(/C=C/C(C)=C/C=C/C(C)=C/C(=O)O)C(C)(C)CCC1
inactive: endpoint: mean survival time, dose: 8.0 mg/kg/injection, schedule: Q01DX009 (ip), vehicle: saline with Tween-80 100 % of control | endpoint: mean survival time, dose: 16.0 mg/kg/injection, schedule: Q01DX009 (ip), vehicle: saline with Tween-80 95 % of control | endpoint: mean survival time, dose: 32.0 mg/kg/injection, schedule: Q01DX009 (ip), vehicle: saline with Tween-80 95 % of control | endpoint: mean survival time, dose: 64.0 mg/kg/injection, schedule: Q01DX009 (ip), vehicle: saline with Tween-80 97 % of control | [1] 105 % of control | endpoint: mean survival time, dose: 128.0 mg/kg/injection, schedule: Q01DX009 (ip), vehicle: saline with Tween-80 87 % of control | [2] 100 % of control | [3] 97 % of control

C=CCc1ccc(OC(=O)Nc2ccc(S(=O)(=O)N(CCC)CCC)cc2)c(OC)c1
inactive: [4] 94 % of control | [5] 94 % of control | [6] 94 % of control

CC(=O)Nc1nc(Br)c2ccccc2c1-c1ccc(N(CCO)CCO)cc1
inactive: endpoint: mean survival time, dose: 25.0 mg/kg/injection, schedule: Q04DX003 (ip), vehicle: DMSO 90 % of control | endpoint: mean survival time, dose: 50.0 mg/kg/injection, schedule: Q04DX003 (ip), vehicle: DMSO 90 % of control | endpoint: mean survival time, dose: 100.0 mg/kg/injection, schedule: Q04DX003 (ip), vehicle: DMSO 94 % of control | endpoint: mean survival time, dose: 200.0 mg/kg/injection, schedule: Q04DX003 (ip), vehicle: DMSO 87 % of control

CCN(CC)CCN1CC2C3C=CC(C3)C2C1 (stereo not given)
inactive: [7] 97 % of control | [8] 100 % of control | [11] 102 % of control and 104 % of control

CCC(C)CC(C)N (stereo not given)
inactive: [4] 104 % of control

C=CCN1C(=O)C=CC1=O
inactive: endpoint: mean survival time, dose: 25.0 mg/kg/injection, schedule: Q04DX002 (ip), vehicle: saline with Tween-80 95 % of control | endpoint: mean survival time, dose: 50.0 mg/kg/injection, schedule: Q04DX002 (ip), vehicle: saline with Tween-80 91 % of control | endpoint: mean survival time, dose: 100.0 mg/kg/injection, schedule: Q04DX002 (ip), vehicle: saline with Tween-80 88 % of control

[Cl][Pt+2][Cl].[NH-]Cc1ccccc1C[NH-]
inactive: endpoint: mean survival time, dose: 3.13 mg/kg/injection, schedule: Q04DX003 (ip), vehicle: dextrose 114 % of control | endpoint: mean survival time, dose: 6.25 mg/kg/injection, schedule: Q04DX003 (ip), vehicle: dextrose 116 % of control | endpoint: mean survival time, dose: 12.5 mg/kg/injection, schedule: Q04DX003 (ip), vehicle: dextrose 124 % of control | endpoint: mean survival time, dose: 25.0 mg/kg/injection, schedule: Q04DX003 (ip), vehicle: dextrose 114 % of control | endpoint: mean survival time, dose: 50.0 mg/kg/injection, schedule: Q04DX003 (ip), vehicle: dextrose 86 % of control

CCCCCCCCCCCC[n+]1c(C)cc(N)c2ccccc21
inactive: endpoint: mean survival time, dose: 1.25 mg/kg/injection, schedule: Q01DX001 (ip), vehicle: other 103 % of control | endpoint: mean survival time, dose: 5.0 mg/kg/injection, schedule: Q01DX001 (ip), vehicle: other 101 % of control

Cc1cc(NC(=O)Nc2ccc(Cl)cc2)no1
inactive: endpoint: mean survival time, dose: 50.0 mg/kg/injection, schedule: Q01DX009 (ip), vehicle: saline sonified 96 % of control | endpoint: mean survival time, dose: 100.0 mg/kg/injection, schedule: Q01DX009 (ip), vehicle: saline sonified 96 % of control | endpoint: mean survival time, dose: 200.0 mg/kg/injection, schedule: Q01DX009 (ip), vehicle: saline sonified 96 % of control

COC(=O)C(N)Cc1ccc(OC(c2ccccc2)(c2ccccc2)c2ccccc2)cc1 (stereo not given)
inactive: endpoint: mean survival time, dose: 50.0 mg/kg/injection, schedule: Q01DX009 (ip), vehicle: saline 100 % of control | [12] 92 % of control | [13] 94 % of control | [14] 94 % of control

CN(C)N=C1CCC2(CC1)c1ccccc1-c1ccccc12
inactive: endpoint: mean survival time, dose: 200.0 mg/kg/injection, schedule: Q01DX001 (ip), vehicle: saline with Tween-80 88 % of control | endpoint: mean survival time, dose: 400.0 mg/kg/injection, schedule: Q01DX001 (ip), vehicle: saline with Tween-80 87 % of control

Cc1ccc2c(c1)n([O-])c1cc(Cl)ccc1[n+]2=O
inactive: endpoint: median survival time, dose: 12.5 mg/kg/injection, schedule: Q01DX009 (ip), vehicle: saline with Tween-80 101 % of control and 111 % of control | endpoint: median survival time, dose: 25.0 mg/kg/injection, schedule: Q01DX009 (ip), vehicle: saline with Tween-80 120 % of control | endpoint: median survival time, dose: 30.0 mg/kg/injection, schedule: Q01DX009 (ip), vehicle: saline with Tween-80 108 % of control | endpoint: median survival time, dose: 50.0 mg/kg/injection, schedule: Q01DX009 (ip), vehicle: saline with Tween-80 114 % of control and 112 % of control | endpoint: median survival time, dose: 60.0 mg/kg/injection, schedule: Q01DX009 (ip), vehicle: saline with Tween-80 117 % of control | endpoint: median survival time, dose: 100.0 mg/kg/injection, schedule: Q01DX009 (ip), vehicle: saline with Tween-80 114 % of control and 122 % of control | endpoint: median survival time, dose: 167.0 mg/kg/injection, schedule: Q01DX009 (ip), vehicle: saline with Tween-80 123 % of control | endpoint: median survival time, dose: 200.0 mg/kg/injection, schedule: Q01DX009 (ip), vehicle: saline with Tween-80 124 % of control and 97 % of control | endpoint: median survival time, dose: 278.0 mg/kg/injection, schedule: Q01DX009 (ip), vehicle: saline with Tween-80 121 % of control

CN(CC#N)N=Nc1ccc(C(N)=O)cc1
inactive: endpoint: mean survival time, dose: 4.68 mg/kg/injection, schedule: Q01DX009 (ip), vehicle: Klucel (hydroxypropylcellulose) (HPC) 96 % of control and 98 % of control | endpoint: mean survival time, dose: 9.37 mg/kg/injection, schedule: Q01DX009 (ip), vehicle: Klucel (hydroxypropylcellulose) (HPC) 102 % of control and 104 % of control | endpoint: mean survival time, dose: 18.75 mg/kg/injection, schedule: Q01DX009 (ip), vehicle: Klucel (hydroxypropylcellulose) (HPC) 95 % of control and 98 % of control | endpoint: mean survival time, dose: 37.5 mg/kg/injection, schedule: Q01DX009 (ip), vehicle: Klucel (hydroxypropylcellulose) (HPC) 102 % of control and 107 % of control | endpoint: mean survival time, dose: 75.0 mg/kg/injection, schedule: Q01DX009 (ip), vehicle: Klucel (hydroxypropylcellulose) (HPC) 118 % of control

COc1cc2cc(c1Cl)N1CC(O)C(C)(O)C(=O)NC(C)C(=O)OC(CC1=O)C1(C)OC1C(C)C1CC(O)(NC(=O)O1)C(OC)/C=C\C=C(\C)C2OC (stereo not given)
inactive: endpoint: median survival time, dose: 2.0 micrograms/kg/injection, schedule: Q01DX009 (ip), vehicle: distilled water + alcohol 104 % of control | endpoint: median survival time, dose: 4.0 micrograms/kg/injection, schedule: Q01DX009 (ip), vehicle: distilled water + alcohol 104 % of control | endpoint: median survival time, dose: 8.0 micrograms/kg/injection, schedule: Q01DX009 (ip), vehicle: distilled water + alcohol 108 % of control | endpoint: median survival time, dose: 32.0 micrograms/kg/injection, schedule: Q01DX009 (ip), vehicle: distilled water + alcohol 104 % of control

COc1ccc(C(=O)Nc2ccc(Br)cc2)cc1
inactive: [12] 93 % of control | [13] 108 % of control | [14] 98 % of control

O=C(O)c1ccccc1C(=O)NCCc1c[nH]c2ccccc12
inactive: [11] 104 % of control | [1] 96 % of control | [9] 96 % of control | [2] 96 % of control | [10] 102 % of control | [3] 95 % of control

O=P(O)(O)c1ccccc1 (tested in a mixture with another compound)
inactive: endpoint: mean survival time, dose: 100.0 mg/kg/injection, schedule: Q04DX003 (ip), vehicle: saline 100 % of control | endpoint: mean survival time, dose: 200.0 mg/kg/injection, schedule: Q04DX003 (ip), vehicle: saline 91 % of control | endpoint: mean survival time, dose: 400.0 mg/kg/injection, schedule: Q04DX003 (ip), vehicle: saline 95 % of control

CC(C)C1(C(C)C)OCCO1
inactive: [8] 98 % of control | [11] 93 % of control | [1] 97 % of control | [9] 95 % of control | [2] 88 % of control
